Drawing on ChEMBL document CHEMBL5214919, “Discovery of Novel BRD4 Ligand Scaffolds by Automated Navigation of the Fragment Chemical Space” (J Med Chem, 2021), this text covers ΔTm and IC50 for 16 compounds.

Experiment [1] has as its target T1, Bromodomain-containing protein 4 (Homo sapiens, UniProt O60885). The experiment can be described thus: Binding affinity to BRD4 (unknown origin) expressed in Escherichia coli BL21 (DE3) assessed as thermal stabilization at 10 uM by SYPRO orange dye based DSF assay.
For experiment [2], the target named is T1, Bromodomain-containing protein 4. The experiment can be described thus: Inhibition of BRD4 (unknown origin) expressed in Escherichia coli BL21 (DE3) using [Lys(Ac)5/8/12/16]-histone H4 (1 to 21residues)-GGK as substrate incubated for 30 mins by TR-FRET assay.

On to `Cc1nnc2n1C[C@@H](NC(=O)Cn1cnnn1)CC2`, for which the ΔTm in experiment [1] was 2.9 °C.

For `Cc1cc(Cl)ccc1O[C@H](C)c1nnc(N)s1`, the ΔTm in experiment [1] amounted to 0.8 °C. Also, the IC50 in experiment [2] was 79 µM.

On to `Cc1nc(C#N)c(NCc2csnn2)o1`, for which, in experiment [1], the ΔTm worked out at 3.4 °C.

Regarding `COc1cccc(Cc2nnc(N)s2)c1`, the ΔTm in experiment [1] came to 1.6 °C.

In turn, `Oc1ccccc1-n1c(O)nnc1S` showed an IC50 in experiment [2] of 644 µM.

For `Oc1ccc(Cl)cc1Nc1ncnc2nc[nH]c12`, in experiment [1], the ΔTm amounted to 2.4 °C. Further, in experiment [2], the IC50 worked out at 491 µM.

Consider `Cc1n[nH]c2nnc(N)c-2c1C`, for which the ΔTm in experiment [1] was determined as 0.9 °C.

Take `Cc1noc(C)c1C(=O)Nc1nnc(C2CC2)s1`: half-maximal inhibition in experiment [2] (IC50) was put at 86 µM.

Consider `Nc1noc2c1c(=O)[nH]c1ccccc12`, for which the ΔTm in experiment [1] was determined as 3.1 °C.

On to `Cc1noc(N)c1-c1ccccc1`, for which the ΔTm in experiment [1] amounted to 4.55 °C. In experiment [2], this compound displayed an IC50 of 91 µM.

Turning to `Cc1nonc1-c1cc2ccccc2[nH]1`, the shift in melting temperature (ΔTm) in experiment [1] amounted to 2.6 °C.

Consider `CCCc1nnc(NC(=O)c2c(C)noc2C)s1`, for which the shift in melting temperature (ΔTm) in experiment [1] was 0.9 °C.

As for `COc1ccc(CNC(=O)CSc2nnc(N)s2)cc1`, the ΔTm in experiment [1] stood at 0.9 °C.

For `CCc1nnc2scc(-c3ccccc3)n12`, the ΔTm in experiment [1] was found to be 3.3 °C.

As for `Cc1cc(SCc2c(C)noc2C)ncn1`, in experiment [1], the ΔTm is 1.8 °C. Besides, in experiment [2], the IC50 came out at 30 µM.

The compound `Cc1noc(C)c1CSc1nnc(C)n1N` gave an IC50 in experiment [2] of 191 µM.
